Experimental data published in patent publication US20110297235A1, “USE OF TRIARYLAMINE DERIVATIVES AS HOLE-CONDUCTING MATERIALS IN ORGANIC SOLAR CELLS AND ORGANIC SOLAR CELLS CONTAINING SAID TRIARYLAMINE DERIVATIVES” (BASF SE, priority 2009, published 2011).
Values after ≈ are worked out from the molar mass of the structure shown.

Key:
[1] = Glass transition temperature Tg and morphology M by means of DSC; type: physicochemical
[2] = Decomposition temperature Td by means of TGA; type: physicochemical
physchem = conditions: organic solvent or mixture

| Structure (SMILES) | glass transition temperature Tg [1] [°C] | decomposition temperature Td [2] [°C] | solubility (physchem; solubility L in chlorobenzene) [mg/mL] | solubility (physchem; solubility in Anisole) [mg/mL] | solubility (physchem; solubility in Ethyl acetate) [mg/mL] | solubility (physchem; solubility in Tetrahydrofuran) [mg/mL] | solubility (physchem; solubility in Toluene) [mg/mL] |
| --- | --- | --- | --- | --- | --- | --- | --- |
| COc1ccc(N(c2ccc(OC)cc2)c2ccc(-c3ccc(N(c4ccc(OC)cc4)c4ccc(-c5ccc(N(c6ccc(OC)cc6)c6ccc(-c7ccc(N(c8ccc(OC)cc8)c8ccc(OC)cc8)cc7)cc6)cc5)cc4)cc3)cc2)cc1 [ID367] | 136 | 450 | 700 to 1000 (≈ 606 to 865 mM) | 450 to 700 (≈ 389 to 606 mM) | 70 to 80 (≈ 60.6 to 69.2 mM) | 370 to 550 (≈ 320 to 476 mM) | 320 to 500 (≈ 277 to 433 mM) |
| COc1ccc(N(c2ccc(OC)cc2)c2ccc(N(c3ccccc3)c3ccc(-c4ccc(N(c5ccccc5)c5ccc(N(c6ccc(OC)cc6)c6ccc(OC)cc6)cc5)cc4)cc3)cc2)cc1 [ID320] | 96 | 450 | 760 to 1000 (≈ 806 to 1060 mM) | – | 140 (≈ 148 mM) | > 280 | 280 (≈ 297 mM) |
| COc1ccc(N(c2ccc(OC)cc2)c2ccc(-c3ccc(N(c4ccccc4)c4ccc(-c5ccc(N(c6ccccc6)c6ccc(-c7ccc(N(c8ccc(OC)cc8)c8ccc(OC)cc8)cc7)cc6)cc5)cc4)cc3)cc2)cc1 [ID321] | 143 | 460 | 900 to 1150 (≈ 822 to 1050 mM) | – | 15 (≈ 13.7 mM) | > 240 | > 100 |
| COc1ccc(N(c2ccc(N(c3ccccc3)c3ccc(N(c4ccccc4)c4ccc(N(c5ccc(OC)cc5)c5ccc6c(c5)C(C)(C)c5ccccc5-6)cc4)cc3)cc2)c2ccc3c(c2)C(C)(C)c2ccccc2-3)cc1 [ID366] | 127 | 460 | > 1100 | – | > 560 | > 440 | > 380 |
| CCCCCCC1(CCCCCC)c2cc(N(c3ccc(OC)cc3)c3ccc(-c4ccc(N(c5ccc(OC)cc5)c5ccc(OC)cc5)cc4)cc3)ccc2-c2ccc(N(c3ccc(OC)cc3)c3ccc(-c4ccc(N(c5ccc(OC)cc5)c5ccc(OC)cc5)cc4)cc3)cc21 [ID450] | 105 | 420 | 900 to 1800 (≈ 674 to 1350 mM) | – | – | – | – |
| COc1ccc(C(c2ccc(OC)cc2)c2ccc(N(c3ccc(OC)cc3)c3ccc(-c4ccc(N(c5ccc(OC)cc5)c5ccc(N(c6ccc(OC)cc6)c6ccc(OC)cc6)cc5)cc4)cc3)cc2)cc1 [ID480] | 105 | 430 | > 280 | – | – | – | – |
| COc1ccc(N(c2ccc(OC)cc2)c2ccc(-c3ccc(N(c4ccc(-c5ccc(N(c6ccc(-c7ccc(N(c8ccc(OC)cc8)c8ccc(OC)cc8)cc7)cc6)c6ccc(C(C)(C)C)cc6)cc5)cc4)c4ccc(C(C)(C)C)cc4)cc3)cc2)cc1 [ID368] | 154 | 460 | 500 to 1000 (≈ 414 to 828 mM) | – | > 380 | 180 to 360 (≈ 149 to 298 mM) | > 240 |
| COc1ccc(N(c2ccc(OC)cc2)c2ccc(-c3ccc(N(c4ccc(OC)cc4)c4ccc(N(c5ccc(OC)cc5)c5ccc(-c6ccc(N(c7ccc(OC)cc7)c7ccc(OC)cc7)cc6)cc5)cc4)cc3)cc2)cc1 [ID446] | 120 | 430 | 1250 to 2500 (≈ 1160 to 2320 mM) | – | 50 to 65 (≈ 46.3 to 60.2 mM) | 1000 to 2000 (≈ 927 to 1850 mM) | > 460 |
| COc1ccc(N(c2ccc(OC)cc2)c2ccc(-c3ccc(N(c4ccc(OC)cc4)c4ccc5c(c4)C(C)(C)c4cc(N(c6ccc(OC)cc6)c6ccc(-c7ccc(N(c8ccc(OC)cc8)c8ccc(OC)cc8)cc7)cc6)ccc4-5)cc3)cc2)cc1 [ID447] | 137 | 430 | 900 to 1800 (≈ 753 to 1510 mM) | – | > 660 | 750 to 1500 (≈ 627 to 1250 mM) | > 520 |
| COc1ccc(N(c2ccc(OC)cc2)c2ccc(-c3ccc(N(c4ccc(-c5ccc(N(c6ccc(-c7ccc(N(c8ccc(OC)cc8)c8ccc(OC)cc8)cc7)cc6)c6ccc7c(c6)C(C)(C)c6ccccc6-7)cc5)cc4)c4ccc5c(c4)C(C)(C)c4ccccc4-5)cc3)cc2)cc1 [ID369] | 154 | 460 | 300 to 450 (≈ 226 to 339 mM) | – | 140 to 280 (≈ 105 to 211 mM) | 100 to 150 (≈ 75.3 to 113 mM) | 140 to 170 (≈ 105 to 128 mM) |

The remaining lines, values ahead:

| glass transition temperature Tg [1] [°C] | decomposition temperature Td [2] [°C] | solubility (physchem; solubility L in chlorobenzene) [mg/mL] | solubility (physchem; solubility in Anisole) [mg/mL] | solubility (physchem; solubility in Ethyl acetate) [mg/mL] | solubility (physchem; solubility in Tetrahydrofuran) [mg/mL] | solubility (physchem; solubility in Toluene) [mg/mL] | Structure (SMILES) |
| --- | --- | --- | --- | --- | --- | --- | --- |
| 120 | 440 | 200 to 230 (≈ 163 to 188 mM) | 65 to 75 (≈ 53 to 61.2 mM) | < 6 | 120 to 160 (≈ 97.9 to 131 mM) | 100 (≈ 81.6 mM) | COc1ccc(N(c2ccc(OC)cc2)c2ccc3c(c2)C2(c4cc(N(c5ccc(OC)cc5)c5ccc(OC)cc5)ccc4-3)c3cc(N(c4ccc(OC)cc4)c4ccc(OC)cc4)ccc3-c3ccc(N(c4ccc(OC)cc4)c4ccc(OC)cc4)cc32)cc1 [spiro-MeOTAD, 2,2′,7,7′-tetrakis(N,N-di-p-methoxyphenyl-amine)-9,9′-spirobifluorene, reference compound] |
| 150 | 430 | 400 to 800 (≈ 324 to 647 mM) | – | > 400 | 550 to 1100 (≈ 445 to 890 mM) | 160 to 240 (≈ 129 to 194 mM) | COc1ccc(N(c2ccc(OC)cc2)c2ccc3c(c2)C(C)(C)c2cc(N(c4ccc(OC)cc4)c4ccc(-c5ccc(N(c6ccc(OC)cc6)c6ccc7c(c6)C(C)(C)c6cc(N(c8ccc(OC)cc8)c8ccc(OC)cc8)ccc6-7)cc5)cc4)ccc2-3)cc1 [ID518] |
| 110 | 440 | > 400 | – | – | – | – | COc1ccc(N(c2ccc(OC)cc2)c2ccc(-c3ccc(N(c4ccc(OC)cc4)c4ccc(-c5ccc(N(c6ccc(OC)cc6)c6ccc(-c7ccc(N(c8ccc(OC)cc8)c8ccc(OC)cc8)cc7)cc6)s5)s4)cc3)cc2)cc1 [ID575] |
| 134 | 430 | > 2000 | > 1500 | > 1300 | > 2000 | > 1500 | COc1ccc(N(c2ccc(OC)cc2)c2ccc(-c3ccc(N(c4ccc(-c5ccc(N(c6ccc(-c7ccc(N(c8ccc(OC)cc8)c8ccc(OC)cc8)cc7)cc6)c6cc(F)c(OC)c(F)c6)cc5)cc4)c4cc(F)c(OC)c(F)c4)cc3)cc2)cc1 [ID629] |
| 128 | 450 | 450 to 900 (≈ 391 to 782 mM) | – | > 460 | > 500 | 240 to 350 (≈ 208 to 304 mM) | COc1ccc(N(c2ccc(-c3ccc(N(c4ccc(OC)cc4)c4ccc(-c5ccc(N(c6ccc(OC)cc6)c6ccc(C)c(C)c6)cc5)cc4)cc3)cc2)c2ccc(-c3ccc(N(c4ccc(OC)cc4)c4ccc(C)c(C)c4)cc3)cc2)cc1 [ID519] |
| 143 | 450 | > 900 | > 1000 | < 40 | > 850 | 400 to 800 (≈ 326 to 653 mM) | CCOc1ccc(N(c2ccc(C3=CCC(N(c4ccc(OC)cc4)c4ccc(-c5ccc(N(c6ccc(OC)cc6)c6ccc(-c7ccc(N(c8ccc(OCC)cc8)c8cccc9ccccc89)cc7)cc6)cc5)cc4)C=C3)cc2)c2cccc3ccccc23)cc1 (stereo not shown) [ID565] |
| 158 | 450 | 900 to 1400 (≈ 723 to 1120 mM) | – | 600 to 1200 (≈ 482 to 964 mM) | 400 to 600 (≈ 321 to 482 mM) | 490 to 980 (≈ 394 to 787 mM) | COc1ccc(N(c2ccc(OC)cc2)c2ccc(-c3ccc(N(c4ccc(OC)cc4)c4ccc5c(c4)c4cc(N(c6ccc(OC)cc6)c6ccc(-c7ccc(N(c8ccc(OC)cc8)c8ccc(OC)cc8)cc7)cc6)ccc4n5-c4ccccc4)cc3)cc2)cc1 [ID522] |
